From PMC12155096 (International Journal of Molecular Sciences, 2025)
Where a name gives a salt, the structure may show the parent alone.

Key:
[1] = target: CYP3A4 (Homo sapiens, UniProt P08684)
[2] = target: human CYP2C9 (Homo sapiens, UniProt P11712)
[3] = target: T1, human CYP1A2 (Homo sapiens, UniProt P05177)
T1 sequence (P05177 1-516): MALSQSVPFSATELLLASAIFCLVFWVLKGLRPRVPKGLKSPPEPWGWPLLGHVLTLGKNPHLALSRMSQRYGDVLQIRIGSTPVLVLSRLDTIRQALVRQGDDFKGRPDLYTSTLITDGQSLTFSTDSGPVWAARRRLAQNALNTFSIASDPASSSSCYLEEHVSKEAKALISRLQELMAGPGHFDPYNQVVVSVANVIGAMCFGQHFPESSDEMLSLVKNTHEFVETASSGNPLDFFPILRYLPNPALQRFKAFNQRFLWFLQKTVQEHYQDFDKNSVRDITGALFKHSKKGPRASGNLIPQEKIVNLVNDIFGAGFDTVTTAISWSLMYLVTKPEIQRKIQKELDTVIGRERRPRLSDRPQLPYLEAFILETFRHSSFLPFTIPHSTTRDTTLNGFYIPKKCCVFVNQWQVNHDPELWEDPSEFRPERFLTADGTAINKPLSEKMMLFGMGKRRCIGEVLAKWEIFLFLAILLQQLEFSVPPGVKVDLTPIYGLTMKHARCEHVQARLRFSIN

[4] = target: human CYP2C19 (Homo sapiens, UniProt P33261)
[5] = target: human CYP2D6 (Homo sapiens, UniProt P10635)
human CYP2D6, sequence (P10635 whole entry): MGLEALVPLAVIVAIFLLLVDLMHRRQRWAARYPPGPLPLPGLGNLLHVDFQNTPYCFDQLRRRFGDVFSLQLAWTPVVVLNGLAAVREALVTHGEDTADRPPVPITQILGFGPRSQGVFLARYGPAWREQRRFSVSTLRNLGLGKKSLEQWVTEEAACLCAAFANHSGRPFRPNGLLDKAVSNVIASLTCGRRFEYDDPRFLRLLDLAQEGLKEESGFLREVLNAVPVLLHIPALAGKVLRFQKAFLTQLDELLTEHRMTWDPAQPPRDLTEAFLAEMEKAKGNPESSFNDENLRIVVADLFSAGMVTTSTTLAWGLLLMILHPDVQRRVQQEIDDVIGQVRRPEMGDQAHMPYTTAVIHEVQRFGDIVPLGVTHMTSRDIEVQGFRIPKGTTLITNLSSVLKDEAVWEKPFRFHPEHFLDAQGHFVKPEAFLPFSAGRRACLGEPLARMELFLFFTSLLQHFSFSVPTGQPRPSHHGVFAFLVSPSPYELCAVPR

CYP3A4, sequence (P08684 whole entry): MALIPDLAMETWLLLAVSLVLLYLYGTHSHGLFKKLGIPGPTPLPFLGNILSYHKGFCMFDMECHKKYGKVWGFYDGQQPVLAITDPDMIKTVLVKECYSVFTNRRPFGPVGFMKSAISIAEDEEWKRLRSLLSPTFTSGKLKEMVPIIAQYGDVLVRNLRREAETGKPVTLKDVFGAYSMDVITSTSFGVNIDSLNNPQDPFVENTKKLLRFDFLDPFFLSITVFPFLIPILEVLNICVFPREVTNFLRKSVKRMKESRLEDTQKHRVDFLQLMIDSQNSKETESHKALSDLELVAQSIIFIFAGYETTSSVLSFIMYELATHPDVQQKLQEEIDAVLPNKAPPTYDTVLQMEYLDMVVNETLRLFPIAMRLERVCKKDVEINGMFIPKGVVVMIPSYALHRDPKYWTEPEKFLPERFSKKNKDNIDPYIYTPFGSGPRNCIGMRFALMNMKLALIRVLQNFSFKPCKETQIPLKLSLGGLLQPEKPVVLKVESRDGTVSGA
human CYP2C9, sequence (P11712 whole entry): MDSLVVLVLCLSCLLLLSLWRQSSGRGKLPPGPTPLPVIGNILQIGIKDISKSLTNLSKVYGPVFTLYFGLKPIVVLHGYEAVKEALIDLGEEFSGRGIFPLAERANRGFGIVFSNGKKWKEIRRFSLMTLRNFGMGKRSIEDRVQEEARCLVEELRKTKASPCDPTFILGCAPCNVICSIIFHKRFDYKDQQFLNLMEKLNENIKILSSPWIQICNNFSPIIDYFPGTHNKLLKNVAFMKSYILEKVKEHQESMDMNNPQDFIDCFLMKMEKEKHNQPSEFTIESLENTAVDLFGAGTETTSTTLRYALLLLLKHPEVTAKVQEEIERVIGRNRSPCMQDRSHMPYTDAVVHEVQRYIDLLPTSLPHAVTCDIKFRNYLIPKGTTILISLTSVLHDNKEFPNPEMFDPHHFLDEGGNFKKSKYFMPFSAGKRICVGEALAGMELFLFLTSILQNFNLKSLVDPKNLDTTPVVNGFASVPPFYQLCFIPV
human CYP2C19, sequence (P33261 whole entry): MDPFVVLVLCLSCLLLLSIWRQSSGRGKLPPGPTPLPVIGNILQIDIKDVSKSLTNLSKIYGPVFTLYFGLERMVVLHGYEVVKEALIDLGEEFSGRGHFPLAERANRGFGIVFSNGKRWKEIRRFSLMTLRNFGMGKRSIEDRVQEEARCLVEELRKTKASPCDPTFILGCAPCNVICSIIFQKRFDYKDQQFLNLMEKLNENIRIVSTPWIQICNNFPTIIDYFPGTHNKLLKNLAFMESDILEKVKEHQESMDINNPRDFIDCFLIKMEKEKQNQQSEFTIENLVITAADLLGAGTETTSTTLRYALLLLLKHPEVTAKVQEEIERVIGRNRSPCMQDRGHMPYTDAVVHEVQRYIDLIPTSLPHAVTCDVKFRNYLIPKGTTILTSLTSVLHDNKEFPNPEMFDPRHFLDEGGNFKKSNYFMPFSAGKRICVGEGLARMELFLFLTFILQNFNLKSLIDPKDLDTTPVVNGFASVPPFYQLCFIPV

Structure (SMILES) | AC50 [1] [µM] | CYP2C9 AC50 (half-maximal activity concentration) [2] | CYP1A2 AC50 (half-maximal activity concentration) [3] | CYP2C19 AC50 (half-maximal activity concentration) [4] | CYP2D6 AC50 (half-maximal activity concentration) [5] | CYP3A4 AC50 (half-maximal activity concentration) [1] | AC50 [2] [µM] | AC50 [4] [µM] | AC50 [3] [µM] | AC50 [5] [µM]
O=C(Cl)c1cc(Cl)cc(Cl)c1 [3,5-Dichlorobenzoyl chloride] | 50.2 | Inconclusive inhibitor | Inactive | Inconclusive inhibitor | Inactive |  |  |  |  | 
OCC(CBr)(CBr)CBr [3-Bromo-2,2-bis(bromomethyl)propanol] |  |  | Inactive |  | Inactive | Inactive | 40.5 | 38.3 |  | 
O=C(Cl)c1ccc(F)c(Cl)c1 [3-Chloro-4-fluorobenzoyl chloride] | 55.5 | Inactive | Inactive | Inconclusive inhibitor | Inconclusive inhibitor |  |  |  |  | 
O=C(c1ccccc1)c1cccc(O)c1 [3-Hydroxybenzophenone] |  |  |  |  |  | Inactive | 3.99 | 23.9 | 36.2 | 54.1
OCc1cccc(Oc2ccccc2)c1 [3-Phenoxybenzenemethanol] | 64.4 |  |  |  | Inconclusive inhibitor |  | 55.8 | 24.7 | 38.5 | 
O=C(C=Cc1ccccc1)OCCCc1ccccc1 [3-Phenylpropyl cinnamate] | 25.2 |  |  |  | Inactive |  | 19.4 | 30.1 | 12.2 | 
CCCCCCCCCCCSCC(=O)O [3-Thiatetradecanoic acid] | 87.3 |  | Inconclusive inhibitor | Inconclusive inhibitor |  |  | 45.2 |  |  | 20.6
Nc1ccc([N+](=O)[O-])c(C(F)(F)F)c1 [3-Trifluoromethyl-4-nitroanilide] |  |  |  |  | Inactive | Inactive | 39.1 | 12.9 | 8.83 | 
CC(C)(C)c1ccc(C(=O)CCCCl)cc1 [4'-Tert-butyl-4-chlorobutyrophenone] | 21.9 | Inactive |  | Inactive | Inactive |  |  |  | 12 | 
O=C(Nc1ccc([N+](=O)[O-])cc1)Nc1ccc([N+](=O)[O-])cc1 [4,4'-Dinitrodiphenylurea] | 11 | Inactive | Inactive | Inactive | Inactive |  |  |  |  | 
CCC(C)(C)C1CCC(O)CC1 (centres unmarked) [4-(2-Methylbutan-2-yl)cyclohexanol] | 9.66 | Inactive | Inconclusive inhibitor | Inactive | Inactive |  |  |  |  | 
CCN(CC)c1ccc(C=O)c(O)c1 [4-(Diethylamino)salicylaldehyde] |  |  |  |  | Inactive | Inactive | 22.8 | 50.6 | 16.4 | 
CC(C)CC(O)Cc1ccccc1 (centres unmarked) [4-Methyl-1-phenyl-2-pentanol] | 34.3 | Inconclusive inhibitor |  |  | Inactive |  |  | 37 | 37 | 
O=C1OC(=O)c2cc(Oc3ccc4c(c3)C(=O)OC4=O)ccc21 [5,5'-Oxybis(2-benzofuran-1,3-dione)] | 30.8 | Inactive | Inactive | Inconclusive inhibitor | Inactive |  |  |  |  | 
CCc1cnc(C(=O)O)c(C(=O)O)c1 [5-Ethyl-2,3-pyridinedicarboxylic acid] | 20.6 | Inactive | Inactive | Inactive | Inconclusive inhibitor |  |  |  |  | 
Cc1ccc([N+](=O)[O-])c(N)c1 [5-Methyl-2-nitroaniline] | 13.9 |  |  |  | Inactive |  | 49.9 | 39.6 | 19.2 | 

Structure (SMILES) | AC50 [1] [µM] | CYP2C9 AC50 (half-maximal activity concentration) [2] | CYP1A2 AC50 (half-maximal activity concentration) [3] | CYP2C19 AC50 (half-maximal activity concentration) [4] | CYP2D6 AC50 (half-maximal activity concentration) [5] | CYP3A4 AC50 (half-maximal activity concentration) [1] | AC50 [2] [µM] | AC50 [4] [µM] | AC50 [3] [µM] | AC50 [5] [µM]
O=C(O)c1cc(C(=O)O)cc([N+](=O)[O-])c1 [5-Nitroisophthalic acid] | 5.59 | Inactive | Inconclusive inhibitor | Inconclusive activator | Inactive |  |  |  |  | 
CC(C)c1ccc2ncccc2c1 [6-(1-Methylethyl)quinoline] | 35 | Inactive |  | Inactive | Inactive |  |  |  | 46.2 | 
CCN(CC)c1ccc2c(C)cc(=O)oc2c1 [7-Diethylamino-4-methylcoumarin] | 32.4 |  |  |  |  |  | 4.6 | 36 | 1.9 | 58.5
N#CCc1ccc(Cl)cc1Cl [(2,4-Dichlorophenyl)acetonitrile] | 13.3 | Inactive |  |  | Inactive |  |  | 50.4 | 23.4 | 
CCCCCC[C@@H](CCC)C(=O)O [(2R)-2-Propyloctanoic acid] | 31 |  | Inactive | Inconclusive activator | Inactive |  | 34.7 |  |  | 
CCOC(=O)CC(CC(=O)OCC)(OC(C)=O)C(=O)OCC [Acetyltriethyl citrate] | 43.5 |  | Inconclusive inhibitor |  | Inactive |  | 30.6 | 18.1 |  | 
CCCCCCCCCCCCCCCCC(C(=O)O)C(O)(CC(=O)O)C(=O)O (centres unmarked) [Agaric acid] | 32.4 | Inactive | Inactive | Inconclusive activator | Inconclusive inhibitor |  |  |  |  | 
CC1(C)[C@@H](O[C@H]2O[C@H](C(=O)O)[C@@H](O)[C@H](O)[C@H]2O[C@@H]2O[C@H](C(=O)O)[C@@H](O)[C@H](O)[C@H]2O)CC[C@]2(C)[C@H]3C(=O)C=C4[C@@H]5C[C@@](C)(C(=O)O)CC[C@]5(C)CC[C@@]4(C)[C@]3(C)CC[C@@H]12.N.O.O.O [Ammonium glycyrrhizinate trihydrate] | 23.5 | Inactive | Inconclusive inhibitor | Inconclusive inhibitor | Inactive |  |  |  |  | 
C[As+](C)(C)CC(=O)[O-] [Arsenobetaine] | 47.7 | Inactive | Inactive | Inactive | Inactive |  |  |  |  | 
CCCCC(CC)C(=O)[O-].CCCCC(CC)C(=O)[O-].[Ba+2] (centres unmarked) [Barium bis(2-ethylhexanoate)] | 38.5 | Inactive | Inactive | Inactive | Inactive |  |  |  |  | 
CC(=O)OC(C(=O)c1ccccc1)c1ccccc1 (centres unmarked) [Benzoin acetate] | 34.5 |  |  |  |  |  | 33.2 | 10.1 | 46.5 | 59.5
O=C(Cc1ccccc1)OCc1ccccc1 [Benzyl phenylacetate] | 11.5 |  |  |  |  |  | 35.8 | 13.5 | 12.7 | 66.3
C/C=C(\C)C(=O)OCc1ccccc1 [Benzyl tiglate] | 39 | Inactive |  | Inconclusive inhibitor | Inactive |  |  |  | 37 | 
C=C(C)C(=O)OCC(O)COc1ccc(C(C)(C)c2ccc(OCC(O)COC(=O)C(=C)C)cc2)cc1 (centres unmarked) [Bisphenol A glycidyl methacrylate] | 3.3 |  |  |  |  |  | 3.46 | 7.59 | 63.5 | 37
CC(c1ccc(O)cc1)c1ccc(O)cc1 [Bisphenol E] |  |  | Inactive |  | Inactive | Inconclusive inhibitor | 38.6 | 33.5 |  | 
